Measurements reported in patent US6559161B1, “Cytotoxic pyrido[2,3,4-ki]acridine derivatives, their preparation and their therapeutic use” (Universidad de Barcelona, priority 1999, dated 2003).
Where two headings read alike, the source gives them in different places.

Key:
[1] = tested on: SK-MEL-28 (ATCC HTB-72, human melanoma); experiment: cytotoxicity, growth inhibition of SK-MEL-28 cells, Crystal Violet staining; type: cell-based; details: approximate IC50, three days of incubation at 37° C.
Description: (§1) The antitumour activity of the compounds of the present invention has been detected in vitro by culturing the tumour cells following the methodology described in Bergeron et al (1984), and by Schroeder et al (1981). Activity against different tumours as mouse lymphoma, human NSC lung carcinoma, human melanoma and human colon carcinoma has been observed.
(§2) Biological activity: cells were maintained in logarithmic phase of growth in Eagle's Minimum Essential Medium, with Earle's Balanced Salts, with 2.0 mM L-glutamine, with non-essential amino acids, without sodium bicarbonate (EMEM/neaa); supplemented with 10% Fetal Calf Serium (FCS), 10^−2 M sodium bicarbonate and 0.1 g/l penicillin-G+streptomycin sulfate.
(§3) The tumour cell lines employed have been P-388D1 (ATCC CCL-46, suspension culture of a lymphoid neoplasm from DBA/2 mouse), A549 (ATCC CCL-185, monolayer culture of a human lung carcinoma), HT-29 (ATCC HTB-38, monolayer culture of a human colon carcinoma) and SK-MEL-28 (ATCC HTB-72, monolayer culture of a human melanoma).
(§4) A549, HT-29 and SK-MEL-28 were seeded into 16 mm wells at 2×10^4 cells per well in 1 ml aliquots of MEM 10FCS containing the indicated concentration of drug. A separate set of cultures without drug and was seeded as control growth to ensure that cells remained in exponential phase of growth. All determinations were carried out in duplicate. After three days of incubation at 37° C., 10% CO2 in a 98% humid atmosphere, the wells were stained with 0.1% Crystal Violet. An approximate IC50 was determined by comparing the growth in wells with drug to the growth in wells control.

[2] = tested on: P-388D1 (ATCC CCL-46, lymphoid neoplasm from DBA/2 mouse); experiment: cytotoxicity, growth inhibition of P-388D1 cells in culture; type: cell-based; details: approximate IC50, three days of incubation at 37° C., growth vs control wells
Description: as §1, §2, §3
as §4, with “P-388D1 cells” for “A549, HT-29 and SK-MEL-28”, “1×10^4” for “2×10^4”, “5FCS” for “10FCS”, “drug” for “drug and”, “expotential” for “exponential”, “an” for “the wells were stained with 0.1% Crystal Violet. An”

[3] = tested on: A549 (ATCC CCL-185, human lung carcinoma); experiment: cytotoxicity, growth inhibition of A549 cells, Crystal Violet staining; type: cell-based; details: approximate IC50, three days of incubation at 37° C., read-out: IC50 (μM) A549 ATCC-CCL-L-185
Description: as §1, §2, §3, §4

[4] = tested on: HT-29 (ATCC HTB-38, human colon carcinoma); experiment: cytotoxicity, growth inhibition of HT-29 cells, Crystal Violet staining; type: cell-based; details: approximate IC50, three days of incubation at 37° C.
Description: as §1, §2, §3, §4

Row | Structure (SMILES) | IC50 ([1]; Homo sapiens, SK-MEL-28, 72 h) | melting point | IC50 ([2]; Mus musculus, P388D1, 72 h) | IC50 ([3]; Homo sapiens, A549, 72 h) | IC50 ([4]; Homo sapiens, HT-29, 72 h) | IC50 [1] | IC50 [2] | IC50 [3] | IC50 [4]
1 | COc1cc([N+](=O)[O-])c2c3c(c4ccccc4nc13)C=CN2 [Example 3, 6-Methoxy-4-nitro-3H-pyrido[2,3,4-kl]acridine] | 0.03 µM | 220 to 223 °C | 0.34 µM | 0.03 µM | 0.34 µM |  |  |  | 
2 | COc1cc(NC(C)=O)c2c3c(c4ccccc4nc13)C=CN2 [Example 4, 4-Acetylamino-6-methoxy-3H-pyrido[2,3,4-kl]acridine] | 0.03 µM | 128 to 132 °C | 1.64 µM | 0.03 µM | 1.64 µM |  |  |  | 
3 | COc1ccc2c3c(c4ccccc4nc13)C=CN2 [Example 1, 3H-6-Methoxypyrido[2,3,4-kl]acridine] |  |  |  |  |  | 0.05 µM | 0.5 µM | 0.05 µM | 0.5 µM
